Results reported in US7455984B2, “Immunoreactive and immunotherapeutic molecules” (The Walter and Eliza Hall Institute of Medical Research, priority 1995, dated 2008).

Test system: Peripheral blood mononuclear cells from IDDM at-risk and HLA-DR matched control subjects
Assay: T-cell proliferation assay ([3H]thymidine incorporation, delta score), ten HLA-DR matched pairs
Format: cell-based, human
Conditions: for Reactivity (T-cell proliferation) by subject group: IDDM at-risk and control subjects, ten pairs; for Delta Score, Mean: mean of 10 subjects; for T-cell proliferative response, IDDM at-risk versus control subjects: highest concentration of peptide, Wilcoxon one-tailed paired analysis (proinsulin p<0.008; GAD p<0.018)

Sequence | Reactivity (T-cell proliferation) by subject group | Delta Score, Mean (Proinsulin 0.4 μg/ml, At Risk, Wilcoxon one-tailed P 0.054 vs Control) | Delta Score (Proinsulin 0.4 μg/ml, Control subject of each pair) | Delta Score, Mean (Proinsulin 0.4 μg/ml, Control) | Delta Score, Mean (Proinsulin 2 μg/ml, At Risk, Wilcoxon one-tailed P 0.125 vs Control) | Delta Score, Mean (Proinsulin 2 μg/ml, Control) | Delta Score, Mean (Proinsulin 10 μg/ml, At Risk, Wilcoxon one-tailed P 0.008 vs Control) | Delta Score, Mean (Proinsulin 10 μg/ml, Control) | T-cell proliferative response, IDDM at-risk versus control subjects | Delta Score, Mean (GAD 0.4 μg/ml, At Risk, Wilcoxon one-tailed P 0.199 vs Control) | Delta Score, Mean (GAD 0.4 μg/ml, Control) | Delta Score, Mean (GAD 2 μg/ml, At Risk, Wilcoxon one-tailed P 0.199 vs Control) | Delta Score, Mean (GAD 2 μg/ml, Control) | Delta Score, Mean (GAD 10 μg/ml, At Risk, Wilcoxon one-tailed P 0.018 vs Control) | Delta Score, Mean (GAD 10 μg/ml, Control)
CRFDPQFALTNIAVRK [unrelated control peptide, irrelevant control peptide (Macromolecular Resources, Fort Collins, Colo.), reference compound] | no subject reacted |  |  |  |  |  |  |  |  |  |  |  |  |  | 
FFYTPKTRREAED [Proinsulin, synthetic 13-mer peptide of human proinsulin, amino acid residues 24-36] | confined almost entirely to IDDM at-risk subjects | 136.0 cpm | 0 cpm | 0 cpm | 251.1 cpm | 45.8 cpm | 558.7 cpm | 27.6 cpm | greater among IDDM at-risk than control subjects |  |  |  |  |  | 
FWYIPPSLRTLED [GAD, synthetic 13-mer peptide of human GAD 65, amino acid residues 506-518] | some controls also responded |  |  |  |  |  |  |  | greater among IDDM at-risk than control subjects | 135.3 cpm | 34.1 cpm | 133.0 cpm | 178.2 cpm | 1042.4 cpm | 318.1 cpm
